Test results published in US20140170096A1, “SUNSCREEN COMPOSITIONS” (priority 2011, published 2014).

Assays:
[1] = tested on: symbiotic zooxanthellae released from coral nubbins; experiment: Zooxanthellae counts: zooxanthellae released in water surrounding coral nubbins; type: in vivo, Acropora sp.; conditions: for Healthy zooxanthellae released / Pale zooxanthellae released / Total zooxanthellae released / Transparent (i.e., dead) zooxanthellae released: end of incubation (72 h); for Percentage of healthy zooxanthellae released / Percentage of pale zooxanthellae released / Percentage of transparent zooxanthellae released: of total released, end of incubation
Procedure: (§1) In situ tests were performed on nubbins (i.e., small branches of about 3-6 cm) of the stony coral Acropora sp. The nubbins were incubated in microcosms in presence of known concentrations of various ingredients potentially to be included in the composition of the eco-compatible sunscreen cream. In particular, coral nubbins (including more than 3000 polyps each) were collected by scuba divers from the same colony, located at a depth of about 3 m on the edge of the reef slope. Sampling of nubbins was performed by means of forceps. The nubbins were washed with seawater filtered onto 0.02-μm filters to eliminate viruses and prokaryotes. Each microcosm was prepared with a replicate set of nubbins (n=3) immersed in sterile polyethylene bags (Whirl-pack, Nasco, Fort Atkinson, Wis., USA) filled with 2 L filtered seawater. A total of 27 microcosms were prepared, in order to test 20 ingredients with the respective positive and negative controls. The microcosms were incubated at in situ temperature and light conditions for 72 hours.
Subsamples (50 mL) of seawater surrounding coral nubbins were collected at the start of the experiment (T0) and after 6, 12, 24, 36, 48 and 72 hours of incubation. The subsamples were fixed in 3% glutaraldehyde and then about 6.0 ml of each replicate was filtered through 2.0-μm polycarbonate filters. Filters were mounted on glass slides and zooxanthellae counted under epifluorescence microscopy (Zeiss Axioplan, Carl Zeiss Inc., Jena, Germany; ×400 and ×1000) using standard and UV light.

[2] = tested on: prokaryotes in water surrounding coral nubbins; experiment: Prokaryotic (bacterial) abundance and enrichment in seawater surrounding coral nubbins (microcosm incubation); conditions: seawater surrounding Acropora sp. nubbins
Procedure: as §1
(§2) After subsampling, sea water was transferred into sterile test tubes without use of fixatives and stored at −20° C. until laboratory analysis for quantification of viral and prokaryotic abundance. Once in laboratory, the water samples were immediately processed. Briefly, 200 uL sea water were diluted 1:10 with prefiltered MilliQ water, through 0.02-μm pore filters (Anodisc filter; 25-mm diameter, Al2O3; Whatman) and stained with 20 μL SYBR Green (stock solution diluted 1:20; Invitrogen, Carlsbad, Calif., USA). […] Slides were stored at −20° C. until microscopy analysis. Virus and prokaryote counts were obtained by epifluorescence microscopy (magnification, ×1000; Zeiss Axioplan) by examining at least 10 optical fields, that is, at least 200 cells or viruses per replicate. Viral (and prokaryotic) enrichment was calculated as ratio between virus (and prokaryote) abundances and virus (and prokaryote) abundance at the […] of the experiment.

[3] = tested on: viruses in water surrounding coral nubbins; experiment: Viral abundance and viral enrichment in seawater surrounding coral nubbins (microcosm incubation); conditions: for Total viral abundances (TVN): seawater surrounding Acropora sp. nubbins, compound concentration per Table 2; for Viral enrichment factor (VEF): ratio of viral abundances, end vs start of incubation
Procedure: as §1, §2

[4] = tested on: coral reefs; experiment: Summary of eco-compatibility of tested products with coral reefs; parameters: species or system Acropora sp.
Procedure: In order to select the most eco-compatible products for each group of compounds (i.e., base cream, fragrance, antioxidants and filters) the following criteria were selected:
1. coral bleaching level; 2. degree of release of symbiotic zooxanthellae; 3. zooxanthellae health conditions; 4. viral enrichment in the incubation medium with respect to controls.

[5] = tested on: stony coral Acropora sp. nubbins; experiment: Quantification of coral bleaching by colorimetric (CMYK) analysis of digital photographs; type: in vivo; conditions: Acropora sp. (stony coral), in vivo, 72 h
Procedure: as §1
Photographs were taken under identical illumination with a Canon PowerShot A620 digital camera (Canon Inc., Tokyo, Japan) with a scale meter on the background. The photos were successively analyzed with a photo-editing software (Adobe Photoshop CS2) for color composition [cyan, magenta, yellow, black (CMYK)]. Levels of bleaching were measured as the difference between the corals' color at the beginning of the experiment and after treatments. Variations in the percentage of the different color components (CMYK) were analyzed with one-way analysis of variance (ANOVA). To rank the bleaching effect due to the compounds tested, a Bray-Curtis similarity matrix was prepared and a multidimensional scaling analysis of the shifts in CMYK color composition of treated corals was performed using Primer 5.0 software (Primer-E Ltd., Plymouth, UK). Bleaching rates were measured as the dissimilarity percentage in CMYK color composition between treated and control corals using the SIMPER tool of Primer 5.0 software (Primer-E Ltd).

| Healthy zooxanthellae released [1] | Pale zooxanthellae released [1] | Total zooxanthellae released [1] | Transparent (i.e., dead) zooxanthellae released [1] | Percentage of healthy zooxanthellae released [1] | Percentage of pale zooxanthellae released [1] | Percentage of transparent zooxanthellae released [1] | Bacterial abundance (total bacterial number, TBN) ([2]; incubation 0 (start)) | Bacterial abundance (total bacterial number, TBN) ([2]; incubation 12 h) | Total viral abundances (TVN) ([3]; incubation 0 (start)) | Total viral abundances (TVN) ([3]; incubation 12 h) | Viral enrichment factor (VEF) [3] | Eco-compatibility [4] | Number of color channels (of 4, CMYK) significantly altered [5] | SMILES |
| --- | --- | --- | --- | --- | --- | --- | --- | --- | --- | --- | --- | --- | --- | --- |
| 6.04E+02 cells ml^−1 | 7.18E+03 cells ml^−1 | 1.46E+04 cells ml^−1 | 6.84E+03 cells ml^−1 | 4% | 49% | 47% | 3.62E+04 | 1.71E+06 | 2.47E+05 viruses ml^−1 | 1.97E+06 viruses ml^−1 | 8.09 | Compatible | 1 | CC1=C(/C=C/C(C)=C/C=C/C(C)=C/CO)C(C)(C)CCC1 [System D20, Retinol] |
| 1.07E+03 cells ml^−1 | 5.30E+03 cells ml^−1 | 1.23E+04 cells ml^−1 | 5.97E+03 cells ml^−1 | 9% | 43% | 48% | 3.62E+04 | 1.54E+06 | 1.03E+05 viruses ml^−1 | 1.98E+06 viruses ml^−1 | 18.92 | Compatible | 1 | CCCCCCCCCCCCCCCC(=O)OC/C=C(C)/C=C/C=C(C)/C=C/C1=C(C)CCCC1(C)C [System D19, retinyl palmitate] |
